The text below walks through data of ChEMBL document CHEMBL3507680, “University of Dundee, Gates Library screen for HepG2 cell viability”.

This series in a line: Human HepG2 cell viability assay in 384 well format. Also on record: dose 125 nL, time 70.5 hour; cytotoxicity at 70.5 h: concentration not given beside the values. The following applies: HepG2 cells, read-out: Inhibition. In kind it is toxicity, cell-based.
Consider `Cn1cc(C2COC3(CCN(C(=O)c4ccc(F)cc4)CC3)C2)cn1` (stereo unspecified), for which the cytotoxicity at 70.5 h is -2.41%.
On to `Cc1nnc([C@@H]2CC[C@@H]3[C@@H](CCN3S(=O)(=O)c3cccnc3)O2)o1`, for which the cytotoxicity at 70.5 h was found to be 0.577%.
In the case of `CCN1C[C@H]2C[C@H](C(=O)NCc3cccnc3)[C@@H](C1)O2`, the cytotoxicity at 70.5 h amounted to 3.07%.
On to `CC(C)CCN1Cc2c(C(=O)O)ncn2-c2ccccc2S1(=O)=O`, for which the cytotoxicity at 70.5 h was determined as 30.1%.
In the case of `Cc1nc2c(c(NC3CC3)n1)CCN(C(=O)C(C)(C)O)CC2`, the cytotoxicity at 70.5 h stood at 2.5%.
Under `O=C(c1ccncc1F)N1CCc2ncnc(-c3ccncc3)c2CC1` stands 6.15%.
To `Cc1nc(CN2C(=O)CC[C@@H]3[C@H]2CCN3C(=O)NC2CC2)cs1` belongs 21.8%; to `O=C(C1CCOCC1)N1C[C@@H]2[C@@H](C1)OCC(=O)N2CC1CC1`, -6.04%; to `CC(=O)NCC(=O)N1Cc2nccn2CC(CN2CCCC2)C1` (stereo unspecified), 0.0844%.
To `CC(C)CN1Cc2c(C(=O)N(C)C)ncn2-c2ccccc2S1(=O)=O` belongs -6.58%; to `CN(C)C(=O)COC1COC2(CCN(S(C)(=O)=O)CC2)C1` (stereo unspecified), -6.01%; to `Cc1occc1C(=O)N1CCc2c(COCC3CC3)cncc2C1`, -2.87%.
Consider `O=C(CC1CC1)NCc1cn2c(n1)CN(C(=O)c1cccnc1)CC2`, for which the cytotoxicity at 70.5 h was -7.69%.
Regarding `COCCC(=O)N1CCC2(COCc3cnc(N4CCOCC4)nc32)C1` (stereo unspecified), the cytotoxicity at 70.5 h was -15.1%.
With `CC(=O)N1CC[C@@H]2CN(C(=O)c3ccco3)CCO[C@@H]2C1`, the cytotoxicity at 70.5 h is -29.3%.
In the case of `O=C(c1ccsc1)N1CCN2C[C@H](OCc3cccnc3)C[C@H]2C1`, the cytotoxicity at 70.5 h was -13.4%.
To `Cn1cccc1C(=O)N1CCCn2nc(CCC(=O)NC3CC3)cc2C1` belongs 9.42%; to `COc1cccc(CC2CN(C3CCC3)CCO2)c1` (stereo unspecified), 0.0358%; to `CC(C)c1cc(C(=O)N2CCOC3(CCCC3)C2)no1`, -21.7%.
For the molecule `COCC(=O)N1CCCC(C(=O)NCc2cc(CC(C)C)on2)C1` (stereo unspecified), the cytotoxicity at 70.5 h stood at 27%.
Under `O=C(NC1CC1)c1ccnc(N2CCOC(c3ccc(Cl)cc3)C2)c1` (stereo unspecified) stands 7.4%; under `CC1(c2ccccc2)CCCN(Cc2cncn2C2CCCC2)C1` (stereo unspecified), -13.6%; under `Cc1nccc(N2CCCC(c3nnc(Cn4ccnc4C)n3C)C2)n1` (stereo unspecified), 16.3%.
As for `O=c1cc(-c2cc(O)cc(CCC3CCCCN3)c2)cc[nH]1` (stereo unspecified), the cytotoxicity at 70.5 h was -6.48%.
As for `CNc1ncccc1C(=O)N1CCC2(CCN(C)C2)CC1`, the cytotoxicity at 70.5 h is 2.78%.
Take `Cc1nc(N[C@H]2COC[C@@H]2N2CCCCC2)c2c(C)nn(C)c2n1`: the cytotoxicity at 70.5 h is -4.88%.
Turning to `CCn1nc(C)cc1C(=O)N1C[C@@H](CN(C)C)[C@@H](CO)C1`, the cytotoxicity at 70.5 h is -2.98%.
With `COc1ncccc1C(=O)N1CCc2c(ncnc2N2CCOCC2)C1`, the cytotoxicity at 70.5 h is -3.85%.
`COCC1CCCN(C(=O)c2ccc(N(C)Cc3cnn(C)c3)nc2)C1` (stereo unspecified): the cytotoxicity at 70.5 h is 26%.
Under `CC(C)[C@@H]1CN(Cc2ccccc2C#N)C[C@H]1NC(=O)N(C)C` stands -1.2%; under `COCc1cccc(C(=O)N2C[C@H]3CC[C@@H]2CN(Cc2cscn2)C3)n1`, 34.5%.
Under `CCC(NC(=O)c1cc(NC(C)=O)ccc1Cl)c1cc(C)ccn1` (stereo unspecified) stands 9.03%; under `CCN(C)C(=O)c1coc(COc2ccccc2)n1`, -4.16%; under `CC(=O)c1cnc(N(C)Cc2cnc3ccccc3n2)nc1C`, -5.98%.
Turning to `Cc1nc(C(=O)NCCS(=O)(=O)N2CCCC2)cs1`, the cytotoxicity at 70.5 h was 13.7%.
Regarding `CN(CCc1ccccc1)Cc1nc(Cc2cccc(F)c2)no1`, the cytotoxicity at 70.5 h came to 0.246%.
To `CC(C)(C)c1ccn(C2(C(=O)O)CCN(c3ccncc3F)CC2)n1` belongs -8.89%; to `O=S1(=O)COCCN1CCOc1ccccc1`, 17.3%; to `COc1ccccc1CN(Cc1cccnc1)Cc1c[nH]c(C)n1`, 8.36%.
On to `c1cc2c(cc1-c1noc3c1CN(C1CCSC1)CC3)OCO2` (stereo unspecified), for which the cytotoxicity at 70.5 h is -12.7%.
To `CS(=O)(=O)NCCC(=O)N1Cc2cnc(-c3ccccc3)nc2C1` belongs 2.41%; to `O=C(c1cc(Cl)ccc1OC1CCN(C2CCCC2)CC1)N1CCCO1`, 11.8%; to `Cc1ccc(C(=O)N2CCSCC2)cc1N1CCNC1=O`, -5.73%.
With `O=C(NCCc1ccncc1)c1ccc(N2CCOCC2)cc1`, the cytotoxicity at 70.5 h amounted to 4.27%.
In the case of `Cc1nc(C)n(CCCNC(=O)C(C)n2ccnc2C(C)C)n1` (stereo unspecified), the cytotoxicity at 70.5 h was -5.67%.
For `Cc1nn(C)c2nc(-c3ccccn3)nc(NC[C@@H]3CCCO3)c12`, the cytotoxicity at 70.5 h turned out to be 2.37%.
Take `CN1CCCN(C(=O)c2cccc(S(=O)(=O)NCC3(C)COC3)c2)CC1`: the cytotoxicity at 70.5 h is -0.00641%.
For the molecule `CC(C)N1CCC(C(=O)N2CCc3c(nc(CC4CC4)[nH]c3=O)C2)CC1`, the cytotoxicity at 70.5 h was -7.62%.
`O=C(c1c[nH]c(=O)[nH]1)N1CCCC2(CCC(=O)N(C3CCCC3)C2)C1` (stereo unspecified): the cytotoxicity at 70.5 h was determined as 1.3%.
For the molecule `O=C(NCCc1noc(C2CCCO2)n1)c1cn2ccsc2n1` (stereo unspecified), the cytotoxicity at 70.5 h is -4.56%.
In the case of `CO[C@@H](C(=O)NC1CCOCC1)c1ccccc1`, the cytotoxicity at 70.5 h was 9.39%.
For `CCc1ccc(CN2CCC(=O)N(CC3CC3)C(C(C)C)C2)nc1` (stereo unspecified), the cytotoxicity at 70.5 h was -11.4%.
On to `CC(C)=CCCC(C)CN1CCC(n2cc(C(=O)NCCO)nn2)CC1` (stereo unspecified), for which the cytotoxicity at 70.5 h was -4.56%.
On to `O=c1cc(N2CCCCC2)cnn1C[C@H](O)CO`, for which the cytotoxicity at 70.5 h was -3.44%.
For `COCC[C@]1(O)CCN(Cc2nc(C)c(C)s2)C[C@H]1C`, the cytotoxicity at 70.5 h was -7.5%.
For the molecule `CCOc1ccc2[nH]c(=O)c(CN3CCCC(CO)(CO)C3)cc2c1`, the cytotoxicity at 70.5 h was -4.6%.
To `Cn1cc(CN2CCCC(CCc3ccc(F)cc3)C2)cn1` (stereo unspecified) belongs 8.18%.
Turning to `CSCCC(=O)N1CCCC(c2ncc[nH]2)C1` (stereo unspecified), the cytotoxicity at 70.5 h was -21.7%.
Turning to `CSCc1noc(CNC(=O)c2cc(C)c(C)[nH]c2=O)n1`, the cytotoxicity at 70.5 h is -5.2%.
With `CCCn1cnnc1CN(C)C(=O)C1CCC(=O)N(C2CCCC2)C1` (stereo unspecified), the cytotoxicity at 70.5 h is -3.21%.
Regarding `CCN(C)C(=O)Cn1c(-c2ccco2)nn(-c2ccccc2OC)c1=O`, the cytotoxicity at 70.5 h was found to be 0.98%.
Take `c1cnc2c(-c3nccn3C[C@@H]3CCCN4CCCC[C@H]34)cccc2c1`: the cytotoxicity at 70.5 h worked out at 2.23%.
To `c1ccc(C2CCCN2Cc2nc(-c3cnccn3)no2)nc1` (stereo unspecified) belongs -6.26%.
To `CC(C)Oc1cccc(F)c1C(C(=O)O)N(C)Cc1ccon1` (stereo unspecified) belongs 0.036%; to `CCCN1CC(NC(=O)Nc2nc(C)n(C(C)C)n2)CC1=O` (stereo unspecified), -3.82%.
Under `Cc1cc(CNC(=O)c2ccc(C(C)N3CCCCC3)o2)[nH]n1` (stereo unspecified) stands -5.86%.
On to `CCN1CC(C(=O)N2CCN(c3cnn(C)c(=O)c3)CC2)CCC1=O` (stereo unspecified), for which the cytotoxicity at 70.5 h was -9.64%.
For the molecule `CN(C)CCn1ccnc1C1CCN(C(=O)CCc2cccnc2)CC1`, the cytotoxicity at 70.5 h was -4.1%.
Under `CCN1Cc2nc(OC)c(CNC(=O)CCC3CCCC3)cc2C1=O` stands -11.1%; under `Cn1cc(CN2CCCC(O)C2)c(-c2ccccc2F)n1` (stereo unspecified), -6.51%.
Regarding `NC(=O)c1ccc(C2CCCN2C(=O)Cn2nc3ccccc3n2)s1` (stereo unspecified), the cytotoxicity at 70.5 h was found to be 8.36%.
To `Cc1cc(C)n(CCC2CC(=O)Nc3cc4[nH]ncc4cc32)n1` (stereo unspecified) belongs -6.11%; to `O=C1N(CCCc2ccccc2)CCCC1(O)CN1CCC(CO)CC1` (stereo unspecified), -9.35%; to `Cc1nnc(CCNC(=O)Nc2ccc(S(C)(=O)=O)cc2)[nH]1`, 35.6%.
To `Cc1c(Cl)cccc1NC(=O)N1CCC2(CC1)NC(=O)CC2C(=O)O` (stereo unspecified) belongs 1.01%.
On to `O=C(CN1CCc2ccccc2C1)NCc1cc2n(n1)CCCNC2`, for which the cytotoxicity at 70.5 h is -6.65%.
As to `CCC(CO)N(Cc1ccco1)C(=O)c1ccccc1NC` (stereo unspecified), the cytotoxicity at 70.5 h stood at 0.632%.
To `CC(C)Oc1cccc2c1c(NC(=O)CN(C)C)nn2CC(F)(F)F` belongs -8.54%.
To `CCn1cnnc1CN(C)C(=O)c1cc(COc2cccc(F)c2)[nH]n1` belongs 10.8%; to `O=C(NC1CC1)C1CN(Cc2ccc3c(c2)OCCO3)CCN1` (stereo unspecified), -11.1%.
Turning to `Cc1ccc(C(=O)N2C[C@@H]3OCCN(CCN4CCCC4)[C@@H]3C2)cn1`, the cytotoxicity at 70.5 h is -4.09%.
As for `CC(C)OCc1ncn2c1CN(Cc1cccs1)CCC2`, the cytotoxicity at 70.5 h is 1.83%.
For `CN1C(=O)C2(CCN(CC3CC3)CC2)c2ccccc21`, the cytotoxicity at 70.5 h was -2.61%.
For `O=C(N1CCCC1)N1Cc2nccn2CC(CN2CCCC2)C1` (stereo unspecified), the cytotoxicity at 70.5 h is -8.56%.
Under `CC(C)OCc1ncn2c1CN(Cc1ccc(F)cc1)CCC2` stands -3.8%; under `COCCN1CCC2(COCc3cnc(N4CCOCC4)nc32)C1` (stereo unspecified), 28.1%.
With `CN(C)C(=O)NC1COC2(CCN(Cc3ccccc3)CC2)C1` (stereo unspecified), the cytotoxicity at 70.5 h was 27.7%.
Under `CN(C)C(=O)c1cnc2n1CCN(Cc1ccccc1)C2` stands -15.3%.
Consider `CN(C)[C@@H]1CCN(C(=O)Cc2ccc(F)cc2)[C@H]1Cc1cnn(C)c1`, for which the cytotoxicity at 70.5 h was -10.4%.
Consider `Cc1ccc(CN2CCn3c(C(=O)N(C)C)cnc3C2)s1`, for which the cytotoxicity at 70.5 h is -20.4%.
With `CC(C)CN1CCC2(C1)CN(c1ncccn1)C2`, the cytotoxicity at 70.5 h is -11.9%.
Turning to `COCCN1CCC2(CCCN(c3ncccn3)C2)C1` (stereo unspecified), the cytotoxicity at 70.5 h is -12.6%.
`CN(C)[C@@H]1CCN(C(=O)NC2CCCC2)[C@H]1Cc1cnn(C)c1`: the cytotoxicity at 70.5 h is -15.8%.
Take `Cc1ccc(CN2CC[C@H]3[C@@H]2CCC(=O)N3CCN2CCCC2)s1`: the cytotoxicity at 70.5 h turned out to be 11.4%.
Take `CCC(=O)N1Cc2nccn2CC(CN(C)Cc2cccnc2)C1` (stereo unspecified): the cytotoxicity at 70.5 h is -17.9%.
Take `O=C(c1cccc(F)c1)N1CCN2C[C@H](OCc3cccnc3)C[C@H]2C1`: the cytotoxicity at 70.5 h is -19%.
